Test results reported in PMC7210504 (Biochemistry, 2017).

Tests used:
[1] = molecular target: T1, ChuY (Escherichia coli, UniProt Q8X5N4); conditions: 30 μM NADPH; anaerobic, pH 8.1, 25 °C; substrate inhibition constant (kinetic)
[2] = molecular target: T1, ChuY; conditions: read-out: steady state parameters^a / Km ^app; 30 μM NADPH; anaerobic, pH 8.1, 25 °C
[3] = molecular target: ChuY from Escherichia coli O157:H7 (anaerobilin reductase) (Escherichia coli O157:H7); assay: AUC
[4] = molecular target: T1, ChuY; assay: biochemical

deuteroanaerobilin [DAB] was tested, and the “equilibrium binding^b / Ki ^app” value [1] was 14 ± 2 µM and the Km [2] was 1600 ± 300 nM.

Compound “ChuY from Escherichia coli O157:H7 (anaerobilin reductase) (enzyme)” has a percent of the c(s) distribution (species consistent with a dimer) [3] of 90% and a stoichiometry N [3] of 2.

`NC(=O)C1=CN([C@@H]2O[C@H](COP(=O)(O)OP(=O)(O)OC[C@H]3O[C@@H](n4cnc5c(N)ncnc54)[C@H](OP(=O)(O)O)[C@@H]3O)[C@@H](O)[C@H]2O)C=CC1` [NADPH] was tested, and the Kd [4] was 2700 ± 200 nM.
